Measurements: article PMC7725003, “Systematically Studying the Optimal Amino Acid Distribution Patterns of the Amphiphilic Structure by Using the Ultrashort Amphiphiles” (Frontiers in Microbiology, 2020)
Where no end group is shown, it is not given here.

Columns and labels:
[1] = system: B. subtilis 63501; assay type: cell-based, Bacillus subtilis; conditions: 63501, 24 h
Summary of the method: (§1)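 Broth microdilution in MHB with mid-log bacteria at 0.5–1 × 10^6 CFU/mL and peptides serially diluted in 0.2% BSA, 24 h at 37 °C. MIC is lowest concentration giving 95% growth inhibition by A492; MBC is lowest concentration killing >99.9% on overnight agar subculture.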

[2] = system: S. aureus 25923; assay type: cell-based, Staphylococcus aureus; conditions: 25923, 24 h
Summary of the method: as §1

[3] = system: S. aureus 29213; assay type: cell-based, Staphylococcus aureus; conditions: 29213, 24 h
Summary of the method: as §1

[4] = system: S. aureus 29213; assay: Salt sensitivity assay (MIC); assay type: cell-based, Staphylococcus aureus; conditions: for MIC, FeCl3: 4 μM FeCl3; for MIC, NH4Cl: 6 μM NH4Cl; for MIC, ZnCl2: 8 μM ZnCl2; for MIC, MgCl2: 1 mM MgCl2; for MIC, CaCl2: 2 mM CaCl2; for MIC, KCl: 4.5 mM KCl; for MIC, NaCl: 150 mM NaCl; for MIC, Control: no added salt, three independent assays
Summary of the method: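 MICs determined by broth microdilution in MHB with 0.5–1 × 10^6 CFU/mL, peptides serially diluted in 0.2% BSA, 24 h at 37°C. Medium supplemented with physiological salts (150 mM NaCl, 4.5 mM KCl, 6 μM NH4Cl, 8 μM ZnCl2, 1 mM MgCl2, 2mM CaCl2, 4 μM FeCl3). MIC = lowest concentration inhibiting 95% growth (A492).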

[5] = system: E. coli K88; conditions: for MIC: MHB, 24 h 37°C, 95% growth inhibition; for MBC: value in brackets, >99.9% of cells killed
Method: (§2) The antimicrobial activities of the peptides were measured using a method adapted from the National Committee for Clinical Laboratory Standards (NCCLS) with some modifications ([Chou et al., 2016]). The specific procedure for these assays has been previously described. In brief, the bacterial cells were grown to a mid-logarithmic phase and diluted in MHB to an ultimate concentration of 0.5–1 × 10^6 CFU mL^–1. Subsequently, the peptides were consecutively diluted in a 0.2% BSA solution and then added to a bacterial solution in a 96-well plate at identical volumes. After incubation for 24 h at 37°C, the MICs were determined to be the lowest peptide concentration that inhibited 95% of the bacterial growth by monitoring the absorbance at 492 nm using a microplate reader. Subsequently, 50 μL of each incubation mixture was further transferred to agar plates and incubated overnight. […] Every assay was reproduced more than 3 times.

[6] = system: E. coli K99; conditions: for MIC: MHB, 24 h 37°C, 95% growth inhibition; for MBC: value in brackets, >99.9% of cells killed
Method: as §2

[7] = system: all of the tested bacterial strains; assay: Geometric mean of MICs, all tested bacterial strains; assay type: cell-based; conditions: for GM, All: geometric mean of MICs across all tested strains; for TI, All: therapeutic index TI = MHC/GM MIC
Summary of the method: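 Mid-log bacteria at 0.5–1 × 10^6 CFU mL^–1 in MHB with peptides serially diluted in 0.2% BSA, 24 h at 37°C. MIC is the lowest concentration giving 95% growth inhibition by A492. MBC is the lowest giving >99.9% kill on agar subculture, and the GM is taken over all strains.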

[8] = system: Gram-positive bacteria; conditions: geometric mean of MBCs, 7 Gram-positive strains (Table 2)
[9] = system: Gram-negative bacteria; conditions: for GM MIC: geometric mean of MICs, 9 Gram-negative strains (Table 2); for TI, Gram-negative bacteria: therapeutic index TI = MHC/GM MIC
Summary of the method: (§3)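 Broth microdilution adapted from NCCLS: mid-log bacteria diluted in MHB to 0.5–1 × 10^6 CFU mL^–1, mixed with peptides serially diluted in 0.2% BSA. After 24 h at 37°C, MIC taken as the lowest concentration inhibiting 95% of growth by absorbance at 492 nm. Assays repeated more than 3 times.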

[10] = system: Gram-positive bacteria; conditions: for GM MIC: geometric mean of MICs, 7 Gram-positive strains (Table 2); for TI, Gram-positive bacteria: therapeutic index TI = MHC/GM MIC
Summary of the method: as §3

[11] = system: E. faecalis 29212; assay type: cell-based, Enterococcus faecalis; conditions: 29212, 24 h
Summary of the method: as §1

[12] = system: P. aeruginosa 27853; assay type: cell-based, Pseudomonas aeruginosa; conditions: 27853, 24 h
Summary of the method: as §1

[13] = system: MRSA 43300; assay type: cell-based, methicillin-resistant S. aureus; conditions: 43300, 24 h
Summary of the method: as §1

[14] = system: E. coli ATCC 25922; assay: Salt sensitivity assay (MIC); assay type: cell-based, Escherichia coli; conditions: for MIC, FeCl3: 4 μM FeCl3; for MIC, NH4Cl: 6 μM NH4Cl; for MIC, ZnCl2: 8 μM ZnCl2; for MIC, MgCl2: 1 mM MgCl2; for MIC, CaCl2: 2 mM CaCl2; for MIC, KCl: 4.5 mM KCl; for MIC, NaCl: 150 mM NaCl; for MIC, Control: no added salt, three independent assays
Summary of the method: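 The salt sensitivity of peptides was tested against E. coli ATCC 25922 using a modified NCCLS broth microdilution MIC method. Mid-log bacteria were diluted in MHB to 0.5–1 × 10^6 CFU mL^–1 and mixed in equal volumes with peptides serially diluted in 0.2% BSA in 96-well plates. Physiological salt was added where specified, and the assay was done three independent times.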

[15] = system: S. typhimurium 7731; assay type: cell-based, Salmonella typhimurium; conditions: 7731, 24 h
Summary of the method: as §1

[16] = system: S. typhimurium 14028; assay type: cell-based, Salmonella typhimurium; conditions: 14028, 24 h
Summary of the method: as §1

[17] = system: S. pullorum 7913; assay type: cell-based, Salmonella pullorum; conditions: 7913, 24 h
Summary of the method: as §1

[18] = system: Listeria monocytogenes CGMCC 1.1075; assay type: cell-based; conditions: CGMCC 1.1075, 24 h
Summary of the method: as §1

[19] = system: Gram-negative bacteria; conditions: geometric mean of MBCs, 9 Gram-negative strains (Table 2)
[20] = system: E. coli O78; assay type: cell-based, Escherichia coli; conditions: O78, 24 h
Summary of the method: as §1

[21] = system: E. coli UB1005; assay type: cell-based, Escherichia coli; conditions: UB1005, 24 h
Summary of the method: as §1

[22] = system: E. coli 25922; assay type: cell-based, Escherichia coli; conditions: 25922, 24 h
Summary of the method: as §1

[23] = system: S. epidermidis 12228; assay type: cell-based, Staphylococcus epidermidis; conditions: 12228, 24 h
Summary of the method: as §1

RRLLLLRRL-NH2 [L7]
MBC [1]: 16 µM
MIC [1]: 8 µM
MIC [2]: > 64 µM
MIC [3]: >64 µM
MIC, FeCl3 [4]: > 64 µM
MIC, NH4Cl [4]: > 64 µM
MIC, ZnCl2 [4]: > 64 µM
MIC, MgCl2 [4]: > 64 µM
MIC, CaCl2 [4]: > 64 µM
MIC, KCl [4]: > 64 µM
MIC, NaCl [4]: > 64 µM
MIC, Control [4]: > 64 µM
MIC [5]: 32 µM
MBC [5]: 64 µM
MIC [6]: 64 µM
MBC [6]: 128 µM
GM, All [7]: 79.48 µM
TI, All [7]: 3.22
GM MBC [8]: 78.02 µM
GM MIC [9]: 94.06 µM
TI, Gram-negative bacteria [9]: 2.72
GM MIC [10]: 64.00 µM
TI, Gram-positive bacteria [10]: 4.00
MIC [11]: > 64 µM
MIC [12]: > 64 µM
MIC [13]: >64 µM
MIC, FeCl3 [14]: > 64 µM
MIC, NH4Cl [14]: > 64 µM
MIC, ZnCl2 [14]: > 64 µM
MIC, MgCl2 [14]: > 64 µM
MIC, CaCl2 [14]: > 64 µM
MIC, KCl [14]: > 64 µM
MIC, NaCl [14]: > 64 µM
MIC, Control [14]: > 64 µM
MIC [15]: > 64 µM
MIC [16]: > 64 µM
MIC [17]: >64 µM
MBC [18]: 32 µM
MIC [18]: 16 µM
GM MBC [19]: 118.51 µM
MBC [20]: 128 µM
MIC [20]: 64 µM
MIC [21]: >64 µM
MIC [22]: > 64 µM
MIC [23]: > 64 µM

LLRLLRRRL-NH2 [L1]
MBC [1]: 4 µM
MIC [1]: 2 µM
MBC [2]: 64 µM
MIC [2]: 32 µM
MBC [3]: 32 µM
MIC [3]: 16 µM
MIC, FeCl3 [4]: > 64 µM
MIC, NH4Cl [4]: 64 µM
MIC, ZnCl2 [4]: 64 µM
MIC, MgCl2 [4]: 64 µM
MIC, CaCl2 [4]: > 64 µM
MIC, KCl [4]: 64 µM
MIC, NaCl [4]: > 64 µM
MIC [5]: 8 µM
MBC [5]: 16 µM
MIC [6]: 8 µM
MBC [6]: 16 µM
GM, All [7]: 16.71 µM
GM MBC [8]: 39.01 µM
GM MIC [9]: 13.72 µM
TI, Gram-negative bacteria [9]: 18.66
GM MIC [10]: 21.53 µM
TI, Gram-positive bacteria [10]: 2.97
MBC [11]: 128 µM
MIC [11]: 64 µM
MIC [12]: > 64 µM
MBC [13]: 32 µM
MIC [13]: 16 µM
MIC, FeCl3 [14]: 4 µM
MIC, NH4Cl [14]: 4 µM
MIC, ZnCl2 [14]: 8 µM
MIC, MgCl2 [14]: 8 µM
MIC, CaCl2 [14]: 32 µM
MIC, KCl [14]: 16 µM
MIC, NaCl [14]: 64 µM
MIC, Control [14]: 8 µM
MBC [15]: 32 µM
MIC [15]: 16 µM
MBC [16]: 32 µM
MIC [16]: 16 µM
MBC [17]: 16 µM
MIC [17]: 8 µM
MIC [18]: > 64 µM
GM MBC [19]: 25.40 µM
MBC [20]: 16 µM
MIC [20]: 8 µM
MBC [21]: 32 µM
MIC [21]: 16 µM
MBC [22]: 16 µM
MIC [22]: 8 µM
MBC [23]: 32 µM
MIC [23]: 16 µM

LRRRLLLLR-NH2 [L6]
MBC [1]: 64 µM
MIC [1]: 32 µM
MIC [2]: > 64 µM
MIC [3]: >64 µM
MIC, FeCl3 [4]: > 64 µM
MIC, NH4Cl [4]: > 64 µM
MIC, ZnCl2 [4]: > 64 µM
MIC, MgCl2 [4]: > 64 µM
MIC, CaCl2 [4]: > 64 µM
MIC, KCl [4]: > 64 µM
MIC, NaCl [4]: > 64 µM
MIC, Control [4]: > 64 µM
MIC [5]: 64 µM
MBC [5]: 128 µM
MIC [6]: 64 µM
MBC [6]: 128 µM
GM, All [7]: 103.07 µM
TI, All [7]: 2.48
GM MBC [8]: 115.93 µM
GM MIC [9]: 101.59 µM
TI, Gram-negative bacteria [9]: 2.52
GM MIC [10]: 105.00 µM
TI, Gram-positive bacteria [10]: 2.44
MIC [11]: > 64 µM
MIC [12]: > 64 µM
MIC [13]: >64 µM
MIC, FeCl3 [14]: > 64 µM
MIC, NH4Cl [14]: > 64 µM
MIC, ZnCl2 [14]: > 64 µM
MIC, MgCl2 [14]: > 64 µM
MIC, CaCl2 [14]: > 64 µM
MIC, KCl [14]: > 64 µM
MIC, NaCl [14]: > 64 µM
MIC, Control [14]: > 64 µM
MIC [15]: > 64 µM
MIC [16]: > 64 µM
MIC [17]: >64 µM
MIC [18]: >64 µM
GM MBC [19]: 128.00 µM
MBC [20]: 128 µM
MIC [20]: 64 µM
MIC [21]: >64 µM
MIC [22]: > 64 µM
MIC [23]: > 64 µM

LRRLRLLRL-NH2 [L12]
MBC [1]: 32 µM
MIC [1]: 16 µM
MIC [2]: > 64 µM
MIC [3]: >64 µM
MIC, FeCl3 [4]: > 64 µM
MIC, NH4Cl [4]: > 64 µM
MIC, ZnCl2 [4]: > 64 µM
MIC, MgCl2 [4]: > 64 µM
MIC, CaCl2 [4]: > 64 µM
MIC, KCl [4]: > 64 µM
MIC, NaCl [4]: > 64 µM
MIC, Control [4]: > 64 µM
MIC [5]: 16 µM
MBC [5]: 32 µM
MIC [6]: > 64 µM
GM, All [7]: 64.00 µM
TI, All [7]: 4.00
GM MBC [8]: 86.14 µM
GM MIC [9]: 59.26 µM
TI, Gram-negative bacteria [9]: 4.32
GM MIC [10]: 70.66 µM
TI, Gram-positive bacteria [10]: 3.62
MIC [11]: > 64 µM
MIC [12]: > 64 µM
MIC [13]: >64 µM
MIC, FeCl3 [14]: 32 µM
MIC, NH4Cl [14]: 32 µM
MIC, ZnCl2 [14]: 32 µM
MIC, MgCl2 [14]: > 64 µM
MIC, CaCl2 [14]: > 64 µM
MIC, KCl [14]: 32 µM
MIC, NaCl [14]: > 64 µM
MIC, Control [14]: 32 µM
MIC [15]: > 64 µM
MIC [16]: > 64 µM
MBC [17]: 64 µM
MIC [17]: 32 µM
MBC [18]: 32 µM
MIC [18]: 16 µM
GM MBC [19]: 87.09 µM
MBC [20]: 128 µM
MIC [20]: 64 µM
MBC [21]: 64 µM
MIC [21]: 32 µM
MBC [22]: 64 µM
MIC [22]: 32 µM
MIC [23]: > 64 µM
